Data taken from patent US4491631A, “Assay method for lipid component, assay composition, and process for production of enzyme used therefor” (Toyo Jozo Kabushiki Kaisha, priority 1981, dated 1985).

Tests used:
Format in all cases: biochemical, Pseudomonas fragi B-0771
[1] = target: T1, 3-hydroxyacyl-CoA dehydrogenase activity of multi-active enzyme (Pseudomonas fragi, UniProt P28793); test: Substrate specificity of 3-hydroxyacyl-CoA dehydrogenase activity; details: 3-hydroxyacyl-CoA used as substrate of 3-hydroxyacyl-CoA dehydrogenase activity
T1 construct: Crude enzyme was prepared from microbial cells of Pseudomonas fragi B-0771; endogenous in cells; host or cells: Pseudomonas fragi B-0771 FERM-P No. 5701 (enzyme extracted with lysozyme and purified from its own cells, not recombinant)
T1 sequence (P28793 whole entry): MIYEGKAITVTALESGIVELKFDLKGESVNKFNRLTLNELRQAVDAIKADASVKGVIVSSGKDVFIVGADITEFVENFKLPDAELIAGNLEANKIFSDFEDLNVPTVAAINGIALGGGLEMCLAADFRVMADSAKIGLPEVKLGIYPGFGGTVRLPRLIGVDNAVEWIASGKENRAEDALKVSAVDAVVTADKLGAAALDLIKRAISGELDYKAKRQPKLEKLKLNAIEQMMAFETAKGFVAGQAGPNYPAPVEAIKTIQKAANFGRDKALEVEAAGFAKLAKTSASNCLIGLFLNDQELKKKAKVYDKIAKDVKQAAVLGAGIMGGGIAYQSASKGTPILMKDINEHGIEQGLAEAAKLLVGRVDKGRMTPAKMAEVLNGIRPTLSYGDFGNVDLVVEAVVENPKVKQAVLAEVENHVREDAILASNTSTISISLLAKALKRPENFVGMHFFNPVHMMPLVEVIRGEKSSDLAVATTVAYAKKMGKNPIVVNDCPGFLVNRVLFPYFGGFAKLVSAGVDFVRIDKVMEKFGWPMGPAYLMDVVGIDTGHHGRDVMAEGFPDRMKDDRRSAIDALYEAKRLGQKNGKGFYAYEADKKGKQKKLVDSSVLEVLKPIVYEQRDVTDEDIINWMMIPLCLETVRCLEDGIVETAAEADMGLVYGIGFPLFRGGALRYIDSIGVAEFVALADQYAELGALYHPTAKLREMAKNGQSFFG
T1 sequence (P28790 whole entry partner): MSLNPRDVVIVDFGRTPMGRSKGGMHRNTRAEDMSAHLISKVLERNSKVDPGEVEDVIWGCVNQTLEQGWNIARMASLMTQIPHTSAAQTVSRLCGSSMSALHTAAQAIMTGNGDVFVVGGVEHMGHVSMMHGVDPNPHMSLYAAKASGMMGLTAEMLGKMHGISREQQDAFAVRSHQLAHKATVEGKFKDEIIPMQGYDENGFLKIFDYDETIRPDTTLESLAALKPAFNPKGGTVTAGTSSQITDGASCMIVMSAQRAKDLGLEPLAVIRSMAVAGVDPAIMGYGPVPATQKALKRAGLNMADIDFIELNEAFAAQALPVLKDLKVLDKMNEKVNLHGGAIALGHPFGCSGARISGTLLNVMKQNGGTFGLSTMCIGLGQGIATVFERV
Method: (§1) The enzyme solution (50 μl) was added to the above reaction mixture, which was preincubated at 27° C. for 2 minutes, and the mixture was incubated at 37° C. for 10 minutes. 0.5% sodium dodecyl sulfate (2.0 ml) was added to stop the reaction and the absorbency was measured at 550 nm (ΔA550) One unit (1 U) is defined as the amount of enzyme which generates 1 μmole of reduced NAD in one minute. Enzyme activity is defined by the following equation: [formula] (c) Assay method of 3-ketoacyl-CoA thiolase activity:
3-hydroxyacyl-CoA dehydrogenase activity was measured by using the following embodiments of 3-hydroxyacyl-CoA: […]

[2] = target: T1, 3-hydroxyacyl-CoA dehydrogenase activity of multi-active enzyme; test: Effect of metal ions on 3-hydroxyacyl-CoA dehydrogenase activity; details: 1 mM metal ion; control 100; 10 min
Method: as §1
(9) Effect of metal ions:
The effect of metal ions was measured on 3-hydroxyacyl-CoA dehydrogenase activity.

[3] = target: T1, 3-hydroxyacyl-CoA dehydrogenase activity of multi-active enzyme; test: Effect of surface active agents on 3-hydroxyacyl-CoA dehydrogenase activity; details: 10 min, 0.1% surface active agent, control 100; for activity at 0.1 %: read-out: Relative activity
Method: as §1
(10) Effect of surface active agents:
The effect of surface active agents was measured on 3-hydroxyacyl-CoA dehydrogenase activity.

| Relative activity [1] [%] | Compound | Relative activity [2] [%] | further results |
| --- | --- | --- | --- |
| 9.5 | CCCCCCCCCCCCCCCCCC(O)CC(=O)SCCNC(=O)CCNC(=O)[C@H](O)C(C)(C)COP(=O)(O)OP(=O)(O)OC[C@H]1O[C@@H](n2cnc3c(N)ncnc32)[C@H](O)[C@@H]1OP(=O)(O)O (some centres unmarked) [3-hydroxyarachidoyl-CoA] |  |  |
| 56.5 | CCCC(O)CC(=O)SCCNC(=O)CCNC(=O)[C@H](O)C(C)(C)COP(=O)(O)OP(=O)(O)OC[C@H]1O[C@@H](n2cnc3c(N)ncnc32)[C@H](O)[C@@H]1OP(=O)(O)O (some centres unmarked) [3-hydroxycaproyl-CoA] |  |  |
| 99.0 | CCCCCCCC(O)CC(=O)SCCNC(=O)CCNC(=O)[C@H](O)C(C)(C)COP(=O)(O)OP(=O)(O)OC[C@H]1O[C@@H](n2cnc3c(N)ncnc32)[C@H](O)[C@@H]1OP(=O)(O)O (some centres unmarked) [3-hydroxycapryl-CoA] |  |  |
| 88.1 | CCCCCC(O)CC(=O)SCCNC(=O)CCNC(=O)[C@H](O)C(C)(C)COP(=O)(O)OP(=O)(O)OC[C@H]1O[C@@H](n2cnc3c(N)ncnc32)[C@H](O)[C@@H]1OP(=O)(O)O (some centres unmarked) [3-hydroxycaprylyl-CoA] |  |  |
| 100.0 | CCCCCCCCCC(O)CC(=O)SCCNC(=O)CCNC(=O)[C@H](O)C(C)(C)COP(=O)(O)OP(=O)(O)OC[C@H]1O[C@@H](n2cnc3c(N)ncnc32)[C@H](O)[C@@H]1OP(=O)(O)O (some centres unmarked) [3-hydroxylauryl-CoA] |  |  |
| 99.0 | CC/C=C\C/C=C\C/C=C\CCCCCC(O)CC(=O)SCCNC(=O)CCNC(=O)[C@H](O)C(C)(C)COP(=O)(O)OP(=O)(O)OC[C@H]1O[C@@H](n2cnc3c(N)ncnc32)[C@H](O)[C@@H]1OP(=O)(O)O (some centres unmarked) [3-hydroxylinolenyl-CoA] |  |  |
| 98.0 | CCCCCCCCCCCC(O)CC(=O)SCCNC(=O)CCNC(=O)[C@H](O)C(C)(C)COP(=O)(O)OP(=O)(O)OC[C@H]1O[C@@H](n2cnc3c(N)ncnc32)[C@H](O)[C@@H]1OP(=O)(O)O (some centres unmarked) [3-hydroxymyristoyl-CoA] |  |  |
| 57.5 | CCCCCCCC/C=C\CCCCCC(O)CC(=O)SCCNC(=O)CCNC(=O)[C@H](O)C(C)(C)COP(=O)(O)OP(=O)(O)OC[C@H]1O[C@@H](n2cnc3c(N)ncnc32)[C@H](O)[C@@H]1OP(=O)(O)O (some centres unmarked) [3-hydroxyoleyl-CoA] |  |  |
| 75.5 | CCCCCCCCCCCCCC(O)CC(=O)SCCNC(=O)CCNC(=O)[C@H](O)C(C)(C)COP(=O)(O)OP(=O)(O)OC[C@H]1O[C@@H](n2cnc3c(N)ncnc32)[C@H](O)[C@@H]1OP(=O)(O)O (some centres unmarked) [3-hydroxypalmitoyl-CoA] |  |  |
| 30.5 | CCCCCCCCCCCCCCCC(O)CC(=O)SCCNC(=O)CCNC(=O)[C@H](O)C(C)(C)COP(=O)(O)OP(=O)(O)OC[C@H]1O[C@@H](n2cnc3c(N)ncnc32)[C@H](O)[C@@H]1OP(=O)(O)O (some centres unmarked) [3-hydroxystearyl-CoA] |  |  |
|  | [Ba+2].[Cl-].[Cl-] [BaCl2] | 106 |  |
|  | [Ca+2].[Cl-].[Cl-] [CaCl 2] | 113 |  |
|  | [Cl-].[Cl-].[Co+2] [CoCl2] | 34 |  |
|  | [Cl][Cu][Cl] [CuCl2] | 12 |  |
|  | [Cl-].[Cl-].[Mg+2] [MgCl2] | 113 |  |
|  | [Cl][Mn][Cl] [MnCl2] | 32 |  |
|  | [Cl][Ni][Cl] [NiCl2] | 95 |  |
|  | [Cl-].[Cl-].[Zn+2] [ZnCl2] | 25 |  |
|  | CCCCCCCCCCCCCCCC[N+](C)(C)C [cetyltrimethylammonium chloride] |  | activity at 0.1 % [3]: 0% |
|  | C[C@H](CCC(=O)O)[C@H]1CC[C@H]2[C@@H]3CC[C@@H]4C[C@H](O)CC[C@]4(C)[C@H]3C[C@H](O)[C@]12C [sodium deoxycholate] |  | activity at 0.1 % [3]: 2% |
|  | CCCCCCCCCCCCOS(=O)(=O)[O-].[Na+] [sodium lauryl sulfate] |  | activity at 0.1 % [3]: 0% |
|  | Triton X-100 |  | Relative activity [3]: 96% |
|  | laurylbenzene sulfonate |  | Relative activity [3]: 0% |
